Columns and labels:
Format in all cases: in vivo
Alopecurus [1] = experiment: Pre-emergence test/greenhouse; conditions: greenhouse, rated after three weeks
Description: (§1) • Solvent: 5 parts by weight of acetone • Emulsifier: 1 part by weight of alkylaryl polyglycol ether
(§2) To produce a suitable preparation of active compound, 1 part by weight of active compound is mixed with the stated amount of solvent, the stated amount of emulsifier is added and the concentrate is diluted with water to the desired concentration.
(§3) Seeds of the test plants are sown in normal soil. After about 24 hours, the soil is sprayed with the preparation of active compound such that the particular amount of active compound desired is applied per unit area. The concentration of the spray liquor is chosen so that the particular amount of active compound desired is applied in 1000 liters of water per hectare.
(§4) After three weeks, the degree of damage to the plants is rated in % damage in comparison to the development of the untreated control.
(§5) The figure denote: • 0%=no effect (like untreated control) • 100%=total destruction

Amaranthus [2] = experiment: Pre-emergence test/greenhouse; conditions: greenhouse, rated after three weeks
Description: as §1, §2, §3, §4, §5

Barley = experiment: Pre-emergence test/greenhouse; conditions: greenhouse, 60 g of ai/ha, rated after three weeks
Description: as §1, §2, §3, §4, §5

Solanum [3] = experiment: Pre-emergence test/greenhouse; conditions: greenhouse, 60 g of ai/ha, rated after three weeks
Description: as §1, §2, §3, §4, §5

Stellaria [4] = experiment: Pre-emergence test/greenhouse; conditions: greenhouse, 60 g of ai/ha, rated after three weeks
Description: as §1, §2, §3, §4, §5

Wheat [5] = experiment: Pre-emergence test/greenhouse; conditions: greenhouse, 60 g of ai/ha, rated after three weeks
Description: as §1, §2, §3, §4, §5

weeds [6] = experiment: Pre-emergence test, activity against weeds
Description: as §1, §2, §3, §4, §5

Abutilon [7] = experiment: Post-emergence test/greenhouse; conditions: greenhouse, rated after three weeks
Description: as §1
(§6) To produce a suitable preparation of active compound, one part by weight of active compound is mixed with the stated amount of solvent, the stated amount of emulsifier is added and the concentrate is diluted with water to the desired concentration.
(§7) Test plants which have a height of 5-15 cm are sprayed with the preparation of active compound such that the particular amounts of active compound desired are applied per unit area. The concentration of the spray liquor is chosen so that the particular amounts of active compound desired are applied in 1000 l of water/ha.
as §4
(§8) The figures denote: • 0%=no effect (like untreated control) • 100%=total destruction

Alopecurus [8] = experiment: Post-emergence test/greenhouse; conditions: greenhouse, rated after three weeks
Description: as §1, §6, §7, §4, §8

Amaranthus [9] = experiment: Post-emergence test/greenhouse; conditions: greenhouse, rated after three weeks
Description: as §1, §6, §7, §4, §8

Echinochloa = experiment: Post-emergence test/greenhouse; conditions: greenhouse, 15 g of ai/ha, rated after three weeks
Description: as §1, §6, §7, §4, §8

Matricaria = experiment: Post-emergence test/greenhouse; conditions: greenhouse, 15 g of ai/ha, rated after three weeks
Description: as §1, §6, §7, §4, §8

Solanum [10] = experiment: Post-emergence test/greenhouse; conditions: greenhouse, 15 g of ai/ha, rated after three weeks
Description: as §1, §6, §7, §4, §8

Stellaria [11] = experiment: Post-emergence test/greenhouse; conditions: greenhouse, 15 g of ai/ha, rated after three weeks
Description: as §1, §6, §7, §4, §8

Wheat [12] = experiment: Post-emergence test/greenhouse; conditions: greenhouse, 15 g of ai/ha, rated after three weeks
Description: as §1, §6, §7, §4, §8

weeds [13] = experiment: Post-emergence test, activity against weeds
Description: as §1, §6, §7, §4, §8

Abutilon [14] = experiment: Pre-emergence test/greenhouse; conditions: greenhouse, rated after three weeks
Description: as §1, §2, §3, §4, §5

Cyperus = experiment: Pre-emergence test/greenhouse; conditions: greenhouse, rated after three weeks
Description: as §1, §2, §3, §4, §5

Galium = experiment: Pre-emergence test/greenhouse; conditions: greenhouse, 250 g of ai/ha, rated after three weeks
Description: as §1, §2, §3, §4, §5

Setaria [15] = experiment: Pre-emergence test/greenhouse; conditions: greenhouse, rated after three weeks
Description: as §1, §2, §3, §4, §5

Sinapis [16] = experiment: Pre-emergence test/greenhouse; conditions: greenhouse, rated after three weeks
Description: as §1, §2, §3, §4, §5

Xanthium [17] = experiment: Pre-emergence test/greenhouse; conditions: greenhouse, rated after three weeks
Description: as §1, §2, §3, §4, §5

Avenafatua = experiment: Post-emergence test/greenhouse; conditions: greenhouse, rated after three weeks
Description: as §1, §6, §7, §4, §8

Setaria [18] = experiment: Post-emergence test/greenhouse; conditions: greenhouse, rated after three weeks
Description: as §1, §6, §7, §4, §8

Sinapis [19] = experiment: Post-emergence test/greenhouse; conditions: greenhouse, rated after three weeks
Description: as §1, §6, §7, §4, §8

Xanthium [20] = experiment: Post-emergence test/greenhouse; conditions: greenhouse, rated after three weeks
Description: as §1, §6, §7, §4, §8

Bromus = experiment: Pre-emergence test/greenhouse; conditions: greenhouse, 60 g of ai/ha, rated after three weeks
Description: as §1, §2, §3, §4, §5

Maize = experiment: Pre-emergence test/greenhouse; conditions: greenhouse, 60 g of ai/ha, rated after three weeks
Description: as §1, §2, §3, §4, §5

Veronica = experiment: Pre-emergence test/greenhouse; conditions: greenhouse, 60 g of ai/ha, rated after three weeks
Description: as §1, §2, §3, §4, §5

Viola = experiment: Pre-emergence test/greenhouse; conditions: greenhouse, 60 g of ai/ha, rated after three weeks
Description: as §1, §2, §3, §4, §5

**Q.** Which results are given for CCCOc1nn(C(=O)NS(=O)(=O)c2c(C(=O)OC)csc2C)c(=O)n1C [Example 3]?
**A.** degree of damage to the plants, Alopecurus (Alopecurus [1]; 60 g of ai/ha): 80%; degree of damage to the plants, Amaranthus (Amaranthus [2]; 60 g of ai/ha): 95%; degree of damage to the plants, Barley (Barley): 0%; degree of damage to the plants, Solanum (Solanum [3]): 90%; degree of damage to the plants, Stellaria (Stellaria [4]): 95%; degree of damage to the plants, Wheat (Wheat [5]): 0%; activity against weeds (weeds [6]): very strong activity; degree of damage to the plants, Abutilon (Abutilon [7]; 15 g of ai/ha): 95%; degree of damage to the plants, Alopecurus (Alopecurus [8]; 15 g of ai/ha): 70%; degree of damage to the plants, Amaranthus (Amaranthus [9]; 15 g of ai/ha): 95%; degree of damage to the plants, Echinochloa (Echinochloa): 60%; degree of damage to the plants, Matricaria (Matricaria): 90%; degree of damage to the plants, Solanum (Solanum [10]): 95%; degree of damage to the plants, Stellaria (Stellaria [11]): 100%; degree of damage to the plants, Wheat (Wheat [12]): 0%; activity against weeds (weeds [13]): very strong activity

**Q.** For CCOc1nn(C(=O)NS(=O)(=O)c2c(C(=O)OC)csc2C)c(=O)n1C1CC1 [Example 6], which “degree of damage to the plants, Abutilon” value (Abutilon [14]; 250 g of ai/ha) is on record?
**A.** 100%

**Q.** What about the “degree of damage to the plants, Alopecurus” value (“degree of damage … Alopecurus” for short) (Alopecurus [1]; 250 g of ai/ha) of the same molecule?
**A.** 95%

**Q.** What about the “degree of damage to the plants, Amaranthus” value (from here on “degree of damage … Amaranthus”) (Amaranthus [2]; 250 g of ai/ha) of the same molecule?
**A.** 95%

**Q.** And the “degree of damage to the plants, Cyperus” value (Cyperus; 250 g of ai/ha)?
**A.** 100%

**Q.** And the “degree of damage to the plants, Galium” value (Galium)?
**A.** 90%

**Q.** What about the “degree of damage to the plants, Setaria” value (Setaria [15]; 250 g of ai/ha) of the same molecule?
**A.** 100%

**Q.** And the “degree of damage to the plants, Sinapis” value (Sinapis [16]; 250 g of ai/ha)?
**A.** 95%

**Q.** What about the “degree of damage to the plants, Xanthium” value (Xanthium [17]; 250 g of ai/ha) of the same molecule?
**A.** 95%

**Q.** And the activity against weeds (weeds [6])?
**A.** very strong activity

**Q.** And the “degree of damage to the plants, Abutilon” value (Abutilon [7]; 250 g of ai/ha)?
**A.** 100%

**Q.** What about the “degree of damage … Alopecurus” value (Alopecurus [8]; 250 g of ai/ha) of the same molecule?
**A.** 100%

**Q.** What about the “degree of damage … Amaranthus” value (Amaranthus [9]; 250 g of ai/ha) of the same molecule?
**A.** 100%

**Q.** And the “degree of damage to the plants, Avenafatua” value (Avenafatua; 250 g of ai/ha)?
**A.** 100%

**Q.** What about the “degree of damage to the plants, Setaria” value (Setaria [18]; 250 g of ai/ha) of the same molecule?
**A.** 100%

**Q.** And the “degree of damage to the plants, Sinapis” value (Sinapis [19]; 250 g of ai/ha)?
**A.** 100%

**Q.** And the “degree of damage to the plants, Xanthium” value (Xanthium [20]; 250 g of ai/ha)?
**A.** 100%

**Q.** What about the activity against weeds (weeds [13]) of the same molecule?
**A.** very strong activity

**Q.** Which results are given for COC(=O)c1csc(C)c1S(=O)(=O)NC(=O)n1nc(SC)n(C)c1=O [Example 12]?
**A.** degree of damage to the plants, Abutilon (Abutilon [14]; 60 g of ai/ha): 100%; degree of damage to the plants, Bromus (Bromus): 100%; degree of damage to the plants, Cyperus (Cyperus; 60 g of ai/ha): 100%; degree of damage to the plants, Maize (Maize): 10%; degree of damage to the plants, Setaria (Setaria [15]; 60 g of ai/ha): 100%; degree of damage to the plants, Stellaria (Stellaria [4]): 100%; degree of damage to the plants, Veronica (Veronica): 100%; degree of damage to the plants, Viola (Viola): 100%; activity against weeds (weeds [6]): very strong activity; degree of damage to the plants, Abutilon (Abutilon [7]; 250 g of ai/ha): 100%; degree of damage to the plants, Alopecurus (Alopecurus [8]; 250 g of ai/ha): 95%; degree of damage to the plants, Amaranthus (Amaranthus [9]; 250 g of ai/ha): 100%; degree of damage to the plants, Avenafatua (Avenafatua; 250 g of ai/ha): 100%; degree of damage to the plants, Setaria (Setaria [18]; 250 g of ai/ha): 100%; degree of damage to the plants, Sinapis (Sinapis [19]; 250 g of ai/ha): 100%; degree of damage to the plants, Xanthium (Xanthium [20]; 250 g of ai/ha): 100%; activity against weeds (weeds [13]): very strong activity

**Q.** COC(=O)c1csc(C)c1S(=O)(=O)NC(=O)n1nc(OC)n(C)c1=O [Example 2] was tested. Which “degree of damage to the plants, Abutilon” value (Abutilon [14]; 60 g of ai/ha) did it give?
**A.** 95%

**Q.** And the “degree of damage … Alopecurus” value (Alopecurus [1]; 60 g of ai/ha)?
**A.** 95%

**Q.** And the “degree of damage … Amaranthus” value (Amaranthus [2]; 60 g of ai/ha)?
**A.** 100%

**Q.** What about the “degree of damage to the plants, Cyperus” value (Cyperus; 60 g of ai/ha) of the same molecule?
**A.** 100%

**Q.** What about the “degree of damage to the plants, Setaria” value (Setaria [15]; 60 g of ai/ha) of the same molecule?
**A.** 95%

**Q.** What about the “degree of damage to the plants, Sinapis” value (Sinapis [16]; 60 g of ai/ha) of the same molecule?
**A.** 95%

**Q.** What about the “degree of damage to the plants, Xanthium” value (Xanthium [17]; 60 g of ai/ha) of the same molecule?
**A.** 100%

**Q.** And the activity against weeds (weeds [6])?
**A.** very strong activity

**Q.** And the “degree of damage to the plants, Abutilon” value (Abutilon [7]; 60 g of ai/ha)?
**A.** 100%

**Q.** What about the “degree of damage … Alopecurus” value (Alopecurus [8]; 60 g of ai/ha) of the same molecule?
**A.** 95%

**Q.** What about the “degree of damage … Amaranthus” value (Amaranthus [9]; 60 g of ai/ha) of the same molecule?
**A.** 100%

**Q.** And the “degree of damage to the plants, Avenafatua” value (Avenafatua; 60 g of ai/ha)?
**A.** 80%

**Q.** And the “degree of damage to the plants, Setaria” value (Setaria [18]; 60 g of ai/ha)?
**A.** 100%

**Q.** And the “degree of damage to the plants, Sinapis” value (Sinapis [19]; 60 g of ai/ha)?
**A.** 100%

**Q.** And the “degree of damage to the plants, Xanthium” value (Xanthium [20]; 60 g of ai/ha)?
**A.** 100%

**Q.** What about the activity against weeds (weeds [13]) of the same molecule?
**A.** very strong activity

From US7642221B2, “Substituted thien-3-yl-sulphonylamino(thio)carbonyl-triazoline(ethi)ones” (Bayer Aktiengesellschaft, priority 1999, dated 2010)
